Here are results for 87 compounds from a melting point compilation (Tetko et al.; mined from patent text by program, amines drawn as free bases though some values may be those of a salt).

Residues, ends and D or L forms follow the SMILES beside them.

For orientation: melting point means the temperature, or range, at which the solid turns liquid.

`CC(=Cc1ccccc1Br)c1ccc2c(c1)C(C)(C)CCC2(C)C` registered a melting point of 116 to 117 °C.

For `COC(=O)c1c(OC)cc(OC)nc1C(F)(F)F`, the melting point was in the range of 85 to 87.5 °C.

`Nc1nc2ccccc2c2c1ncn2C1CC(O)C(CO)O1` (configuration not stated) had a melting point of 232 to 237 °C.

Regarding `C=CCNc1nc(Cl)nc2c1ncn2CC=C`, the melting point is 110 to 112 °C.

The compound `O=C(NCCO)c1cccc(-c2cccc3cc(Cc4ccc(=O)[nH]c4)sc23)c1` registered a melting point of 134 to 137 °C. For `CNC(=O)N(O)C(C)C#CCCc1ccccc1` (configuration not stated), the melting point fell in the range of 121 to 123 °C. Regarding `CC(C)C[C@H](NC(=O)[C@H](Cc1c[nH]cn1)NC(=O)[C@H](Cc1cccc2ccccc12)NC(=O)OCc1ccccc1)[C@@H](O)CC(N)=O`, the melting point fell in the range of 158 to 161 °C. On to `CC(CCc1ccc(CC(=O)O)cc1)CC(=O)O` (configuration not stated), for which the melting point lay within 100 to 102 °C. In turn, `CNc1nc2c(C)cccc2c2c1CCN2c1ccccc1C` showed a melting point of 165 to 167 °C. In the case of `C=C(n1c(=O)n(CCCl)c2ccccc21)C(F)(F)F` it was 158 to 160 °C; in that of `NC(=O)CC(NC(=O)C(N)CO)C(=O)NC(Cc1ccccc1)C(N)=O` (stereo not drawn) (H-Ser-Asn-Phe-NH2; configuration not given here), 169 to 172 °C; in that of `CCCCOc1ccc([N+](=O)[O-])c(CO)c1`, 47 to 49 °C. In the case of `CCCCCCCCCCCCc1ccc(CCC(N)(CO)CCO)cc1` (configuration not stated) it was 75 to 77 °C; in that of `COCOC1=C(C(N)=O)CC(C#N)(c2ccc(OC)c(OCC3CC3)c2)CC1` (configuration not stated), 120 to 122 °C; in that of `COC(=O)c1ccc(OCCN2C(=O)c3ccccc3C2=O)cc1`, 129 to 130 °C.

For `CN(C)c1cccc2c1C(=O)NS2(=O)=O`, the melting point was 228 to 229 °C.

Regarding `CN(C(=O)N1CCN(C[C@@]2(C)Cn3cc([N+](=O)[O-])nc3O2)CC1)c1ccc(C(F)(F)F)cc1`, the melting point was in the range of 100 to 102 °C.

With `N#Cc1cnn2c1N(C(=O)CN1CCN(Cc3ccccc3C(F)(F)F)CC1)CC=C2c1cccc(C(F)(F)F)c1`, the melting point is 169 to 171 °C. `CNC(=O)N(N)c1nnc(C(C)(C)C)s1` returned a melting point of 141 to 142 °C. Compound `COC(=O)c1ccc(C(C)=O)o1` yielded a melting point of 101 to 102 °C. Consider `COc1ccc(C=CCCCCOc2ccc(S(=O)(=O)c3cccc(C(=O)O)c3)cc2CCC(=O)O)cc1`, for which the melting point lay within 145 to 148 °C. `CCOC(=O)c1cc2c(C)ccc(N(CC)S(=O)(=O)c3cccs3)c2[nH]1` came in with a melting point of 148 to 149 °C.

In turn, `CS(=O)(=O)c1ccc2c(c1)C=C(C(=O)O)C(C(F)(F)F)O2` (configuration not stated) gave a melting point of 208 to 212 °C. For `N#Cc1ccc([N+](=O)[O-])cc1[N+](=O)[O-]`, the melting point is 88 to 92 °C. In the case of `COc1ccc(N2CCOCC2)c2sc(NC(=O)NC3CCCC3)nc12` it was 191 to 194 °C; in that of `CC(C#N)S[C@H](C)[C@](O)(Cn1cncn1)c1ccc(F)cc1F` (some centres not stated), 66 to 68 °C. `CCCNC(=O)c1nc(CCl)n(-c2ccc(Cl)cc2C(=O)c2ccccc2Cl)n1` displayed a melting point of 110 to 113 °C.

For `Cc1oc(-c2ccccc2)nc1CCOc1ccc(C[C@@H](C(=O)O)N2CCN(S(=O)(=O)c3ccc(F)cc3)CC2)cc1`, the melting point lay within 198 to 200 °C.

In turn, `CC(=O)Nc1ccc(NCCSC#N)c([N+](=O)[O-])c1` gave a melting point of 168 °C.

Compound `Cc1c(NC(=O)c2ccc(C#CC3(O)CCC3)cc2)ccc2cc(CNCC(C)C)n(C)c12` returned a melting point of 222 to 223 °C. The compound `CCOCc1ncc[nH]1` gave a melting point of 205 to 206 °C. As for `O=C1c2ccccc2C(=O)N1CCc1ccc(C=Cc2ccccc2)cc1`, the melting point lay in the range of 212 to 215 °C. For the compound `CCCCCCC(Oc1ccc(C2=CCCCC2)cc1)C(=O)O` (configuration not stated), the melting point fell in the range of 70 to 71 °C. `Cc1nc(CC2OC(CO)C(O)C2O)n2nc(N(C)C)ccc12` (configuration not stated): the melting point fell in the range of 231 to 232 °C. For `Nc1c(NC2CCc3ccccc32)[nH]c(=O)[nH]c1=O` (configuration not stated), the melting point was over 150 °C. For `CNC(=O)Oc1ccc2c(ccn2Cc2ccncc2)c1` the value was 170 °C; for `CCOC(=O)CNc1cc(F)ccc1C(=O)O`, 123 to 125 °C. `Cc1cccc2c1CCc1ccccc1C2(O)CCCN=Cc1ccccc1` (configuration not stated): the melting point fell in the range of 130 to 131 °C. The compound `N#Cc1ccc(N(Cc2ccc(OS(N)(=O)=O)c(Cl)c2)n2cnnc2)cc1-c1ccoc1` registered a melting point of 154 to 155 °C. Turning to `O=C1c2cc3ccc4c(c3c(-c3ccc5c(c3)OCO5)c2CN1CCCO)OCO4`, the melting point is 213 to 215 °C. Compound `CC[C@H]1CN(c2ccc3c(=O)c(C(=O)O)cn([C@@H]4C[C@@H]4F)c3c2C)C[C@H]1N` gave a melting point of 232 to 234 °C. Take `CCc1cc2c(ccc(=O)n2Cc2ccc(-c3ccccc3C(=O)O)cc2)c(CC)n1`: the melting point was 238 to 240 °C. In turn, `O=c1cnc(-c2ccc([N+](=O)[O-])cc2)c[nH]1` displayed a melting point of 336 to 338 °C.

Turning to `CCN1CN2C(=N1)C(c1ccccc1Cl)=NCC1=C2S(=O)CC1` (configuration not stated), the melting point was 199 to 200 °C. In the case of `Cc1ccc(C#N)c(OCc2ccc(OCc3nc(-c4ccccc4)oc3C)cc2)n1` it was 116 to 117 °C; in that of `O=C(O)c1cnccc1-c1ccccc1`, 245 to 246 °C; in that of `c1ccc(Cn2c3c(c4ccccc42)CCC(Cc2nnn[nH]2)S3)cc1` (configuration not stated), 160 to 165 °C. The compound `CCOC(=O)c1nc(-c2ccc(Cl)cc2Cl)n(-c2ccc(Cl)cc2)c1CF` registered a melting point of 124 to 125 °C.

Take `Cc1ccc(NC(=O)NCCN2CCN=C2c2ccccc2Cl)cc1`: the melting point fell in the range of 108 to 111 °C.

The compound `CCOC(=O)C1=C(C)N=C(SCc2ccc(OC)cc2)N(C(=O)OCC)C1c1cccc(Cl)c1Cl` (configuration not stated) had a melting point of 124 to 126 °C. `C=CCc1c(O)c(C)cc2c1C(C)(C)CC1(CC(C)(C)c3cc(O)c(C)cc3O1)O2` (configuration not stated) returned a melting point of 102 to 104 °C. `CNc1nc(-c2ccc(SC)cc2)n(-c2ccc(C)cc2)c(=O)c1C#N` yielded a melting point of 268 to 271 °C. For `Cc1nn(C)c(NC(=O)Nc2ccccc2)c1C1=CCCC1` the value was 204 °C; for `CC1(C)CCC(C#N)(Cc2ccc(Cl)cc2)C1=O` (configuration not stated), 101 to 103 °C; for `CCOC(=O)c1c(C(C)C)c2n(c1-c1ccc(F)cc1)CCCC2`, 76 to 78 °C. Turning to `O=C(Cc1ccc2nc(CCCOc3cccc(CN4CCCC4)c3)[nH]c2c1)N1CCCC1`, the melting point turned out to be 68 °C. Consider `O=S1N=C(NCCCN(Cc2ccccc2)c2ccccn2)C(NCc2cccnc2)=N1` (configuration not stated), for which the melting point lay in the range of 114 to 116 °C. The compound `CCCCCNC(=O)C(C)Cc1ccc2c(c1)c(Cc1ccc(C(=O)O)cc1OC)cn2C` (configuration not stated) came in with a melting point of 85 to 95 °C. On to `CCOC(=O)N1CCN(CCCCCCNc2cc(OC)cc3c(C)ccnc23)CC1`, for which the melting point is 59 to 60 °C. `CCOc1cc2c(cc1OCC)C(=C(C#N)SCC(O)CN1CCOCC1)NCC2` (configuration not stated) displayed a melting point of 97 °C. Compound `CCOC(=O)c1cc(NCc2ccccc2)c(Nc2ccc(C)cc2C)c(S(N)(=O)=O)c1` registered a melting point of 167 to 168 °C. In the case of `COc1ccc2cc(C(C)(O)C(=O)O)ccc2c1` (configuration not stated) it was 150 to 152 °C; in that of `COc1cc2c(cc1OCc1ccccc1)CCN(Cc1cccnc1)C2`, 78 to 79 °C; in that of `CCCOC(=O)Nc1nc2ccccc2c2c1nc(CC)n2CCCCNS(C)(=O)=O`, 155 to 157 °C. On to `CC(C)n1nc(-c2sc(C(N)=S)nc2-c2ccccc2)ccc1=O`, for which the melting point was over 250 °C. As for `Cc1nc(-c2ccccc2)nc(-c2cccc([N+](=O)[O-])c2)c1C(C)Br` (configuration not stated), the melting point lay in the range of 133 to 134 °C.

The compound `O=C(NCCN1CCOCC1)Nc1nc2ccc(OCc3c(Cl)cccc3Cl)cc2[nH]1` gave a melting point of 256 to 259 °C. As for `C=CCNC(=O)[C@H]1CN(c2ccc(N3CCOCC3)c(F)c2)C(=O)O1`, the melting point lay within 167 to 169 °C. Turning to `N#Cc1nn(-c2c(Cl)cc(C(F)(F)F)cc2Cl)c(N)c1-c1ccc(C(F)(F)F)o1`, the melting point lay in the range of 148 to 151 °C. `CCOC(=O)Cc1ccc(NC(=O)C(COC2CCCCO2)NS(=O)(=O)c2ccc(Cl)c([N+](=O)[O-])c2)cc1` (racemic) had a melting point of 108 to 111 °C. In turn, `O=[N+]([O-])c1cccc(-n2cnnc2C(F)(F)F)c1` displayed a melting point of 142 °C. Compound `CC(C)NC(c1nccn1C)C1(c2ccc(Cl)c(Cl)c2)CCC1` (configuration not stated) displayed a melting point of 98 to 100 °C. With `COc1ccc(-c2ccc(N3C[C@H](CNC(C)=O)OC3=O)cc2F)ccc1=O`, the melting point lay in the range of 227 to 228 °C. For `CC(C)(C)CNC(=O)C1=C(C(=O)Nc2cc(OC3CCCC3)c(Cl)cc2F)CCCC1` the value was 173 to 175 °C. Compound `O=C(NCC1CC1)NCC1CC1` had a melting point of 127 to 130 °C. For `O=c1cc2c(nn1-c1ccc(Cl)cc1)-c1ccccc1S(=O)CC2` (configuration not stated), the melting point was 233 to 234 °C.

`O=C(Nc1ccc(N2CCOCC2)cc1)Nc1ccc(C(F)(F)F)cc1`: the melting point fell in the range of 228 to 232 °C. `CC(C)Oc1ccc(CCCOc2nn(Cc3ccccc3)cc2CC(=O)O)c(OCc2ccc(Cl)cc2Cl)c1`: the melting point fell in the range of 103 to 104 °C. As for `CC(C)(C)OC(=O)N1CCc2c(n(CCOc3ccccc3)c3c(Cl)ccc(Cl)c23)CC1`, the melting point was 132 to 133 °C. In the case of `CCCC(=O)Oc1ccc2nc(NC(=O)Nc3ccccc3)sc2c1` it was 207 to 211 °C; in that of `O=C(O)c1cc(-c2cccc(C(F)(F)F)c2)c(=O)n2ccccc12`, 228 to 229 °C; in that of `COc1ccc(CS(=O)(=O)C(C)(Cc2ccccc2)C(=O)N(O)O)cc1` (configuration not stated), 58 to 59 °C. For `COc1ccc2c(c1)Cc1cc(C(C)C(=O)O)ccc1-2` (configuration not stated) the value was 179 to 181 °C; for `CC(C)C[C@H](NC(=O)c1ccc(C(=N)N)cc1)C(=O)N1CCc2nn(CC(=O)O)cc2C1`, 165 to 169 °C. Consider `O=[N+]([O-])c1ccc(-n2cccn2)c(F)c1`, for which the melting point fell in the range of 128 to 129 °C. As for `CCN1CCCC1CNC(=O)c1c(Br)c(Br)c([N+](=O)[O-])c2c1OCCO2` (configuration not stated), the melting point turned out to be 213 °C. Turning to `c1ccc(C2CN(CCc3ccccn3)Cc3c2[nH]c2ccccc32)cc1` (configuration not stated), the melting point fell in the range of 190 to 192 °C.
